Measurements taken from paper PMC10257182, “Discovery of senolytics using machine learning” (Nature Communications, 2023).
Like-named read-outs stand apart in the source and are kept apart here.

Legend:
Type in all cases: cell-based, human
[1] = tested on: non-senescent control A549 cells; assay: Nuclei count senolytic assay, TIS model, non-senescent control cells; details: Homo sapiens, A549, Control cells, mean, read-out: Mean % Cell Survival; for viability at 10 µM: log (dose) [M] -5; for viability at 4.68 µM: log (dose) [M] -5.33; for viability at 2.19 µM: log (dose) [M] -5.66; for viability at 1 µM: log (dose) [M] -6; for viability at 0.468 µM: log (dose) [M] -6.33; for viability at 0.219 µM: log (dose) [M] -6.66; for viability at 0.1 µM: log (dose) [M] -7; for viability at 0.0468 µM: log (dose) [M] -7.33; for viability at 0.01 µM: log (dose) [M] -8
How it was run: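 Nuclei counted by Hoechst 33342 imaging after fixation, following 72 h treatment with compound at 10 nM–10 μM (10-point […], triplicates). Targets were control A549 cells and A549 rendered senescent by 48 h 100 μM etoposide plus 3 days recovery.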

[2] = tested on: senescent IMR90 ER:RAS cells (4-OHT-induced); assay: Nuclei count (Hoechst, high content imaging) senolytic assay, oncogene-induced senescence (OIS) model, senescent cells; details: for viability at 10 µM / viability at 4.677 µM / viability at 2.188 µM / viability at 1 µM / viability at 0.4677 µM / viability at 0.2188 µM / viability at 0.1 µM / viability at 0.04677 µM / viability at 0.02188 µM / viability at 0.01 µM: Homo sapiens; for viability at 10 µM: log (dose) [M] -5, 72 h; for viability at 4.677 µM: log (dose) [M] -5.33, 72 h; for viability at 2.188 µM: log (dose) [M] -5.66, 72 h; for viability at 1 µM: log (dose) [M] -6, 72 h; for viability at 0.1 µM: log (dose) [M] -7, 72 h
How it was run: (§1)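 Senolytic read-out as total nuclei per well by automated Hoechst imaging after 72 h compound exposure (10 μM to 10 nM, 10-point […], triplicate), relative to untreated controls. Paired cultures: IMR90 ER:RAS kept non-senescent or made senescent with 100 nM final 4-OHT; ouabain served as positive control.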

[3] = tested on: non-senescent control IMR90 ER:RAS cells; assay: Nuclei count (Hoechst, high content imaging) senolytic assay, OIS model, non-senescent control cells; details: Homo sapiens; for viability at 4.677 µM: log (dose) [M] -5.33, 72 h; for viability at 0.2188 µM: log (dose) [M] -6.66, 72 h; for viability at 4.68 µM: log (dose) [M] -5.33; for viability at 0.219 µM: log (dose) [M] -6.66
How it was run: as §1

[4] = IMR-90, 72 h, Senescent, mean n=3 (Fig 3C), read-out: Mean % Cell Survival
[5] = IMR-90, 72 h, Senescent, log (dose) [M] -6.33, 72 h, mean n=3 (Fig 3C), read-out: Mean % Cell Survival
[6] = IMR-90, 72 h, Senescent, log (dose) [M] -6.66, 72 h, mean n=3 (Fig 3C), read-out: Mean % Cell Survival
[7] = IMR-90, 72 h, Senescent, log (dose) [M] -7.33, 72 h, mean n=3 (Fig 3C), read-out: Mean % Cell Survival
[8] = IMR-90, 72 h, Senescent, log (dose) [M] -7.66, 72 h, mean n=3 (Fig 3C), read-out: Mean % Cell Survival
[9] = IMR-90, 72 h, Senescent, log (dose) [M] -8, 72 h, mean n=3 (Fig 3C), read-out: Mean % Cell Survival
[10] = IMR-90, Senescent cells, log (dose) [M] -7.33, individual replicates, SUP FIG 4C, read-out: % Cell Survival
[11] = IMR-90, 72 h, Control, log (dose) [M] -5, 72 h, mean n=3 (Fig 3C), read-out: Mean % Cell Survival
[12] = IMR-90, 72 h, Control, mean n=3 (Fig 3C), read-out: Mean % Cell Survival
[13] = IMR-90, 72 h, Control, log (dose) [M] -5.66, 72 h, mean n=3 (Fig 3C), read-out: Mean % Cell Survival
[14] = IMR-90, 72 h, Control, log (dose) [M] -6, 72 h, mean n=3 (Fig 3C), read-out: Mean % Cell Survival
[15] = IMR-90, 72 h, Control, log (dose) [M] -6.33, 72 h, mean n=3 (Fig 3C), read-out: Mean % Cell Survival
[16] = IMR-90, 72 h, Control, log (dose) [M] -7, 72 h, mean n=3 (Fig 3C), read-out: Mean % Cell Survival
[17] = IMR-90, 72 h, Control, log (dose) [M] -7.33, 72 h, mean n=3 (Fig 3C), read-out: Mean % Cell Survival
[18] = IMR-90, 72 h, Control, log (dose) [M] -7.66, 72 h, mean n=3 (Fig 3C), read-out: Mean % Cell Survival
[19] = IMR-90, 72 h, Control, log (dose) [M] -8, 72 h, mean n=3 (Fig 3C), read-out: Mean % Cell Survival
[20] = IMR-90, Control, read-out: % Cell Survival
[21] = IMR-90, Control, log (dose) [M] -5.66, read-out: % Cell Survival
[22] = IMR-90, Control, log (dose) [M] -7, read-out: % Cell Survival
[23] = IMR-90, Control, log (dose) [M] -7.33, read-out: % Cell Survival
[24] = IMR-90, Control, log (dose) [M] -8, read-out: % Cell Survival

Cc1cc2c(C(C)C)c(O)c(O)c(C=O)c2c(O)c1-c1c(C)cc2c(C(C)C)c(O)c(O)c(C=O)c2c1O [Gossypol, gossypol]
viability at 10 µM [1]: 117% | viability at 4.68 µM [1]: 107% | viability at 2.19 µM [1]: 100% | viability at 1 µM [1]: 101% | viability at 0.468 µM [1]: 108% | viability at 0.219 µM [1]: 94.5% | viability at 0.1 µM [1]: 68% | viability at 0.0468 µM [1]: 101% | viability at 0.01 µM [1]: 78.1% | viability at 10 µM [2, 4]: 26.6% | viability at 4.677 µM [2, 4]: 121% | viability at 2.188 µM [2, 4]: 156% | viability at 1 µM [2, 4]: 166% | viability at 0.4677 µM [2, 5]: 168% | viability at 0.2188 µM [2, 6]: 188% | viability at 0.1 µM [2, 4]: 130% | viability at 0.04677 µM [2, 7]: 120% | viability at 0.02188 µM [2, 8]: 145% | viability at 0.01 µM [2, 9]: 116% | viability at 0.2188 µM ([2]; IMR-90, Senescent cells, log (dose) [M] -6.66, individual replicates, SUP FIG 4C, read-out: % Cell Survival): 189% | viability at 0.04677 µM [2, 10]: 127% | viability at 10 µM [3, 11]: 86.7% | viability at 4.677 µM [3, 12]: 131% | viability at 2.188 µM [3, 13]: 118% | viability at 1 µM [3, 14]: 120% | viability at 0.4677 µM [3, 15]: 135% | viability at 0.2188 µM [3, 12]: 146% | viability at 0.1 µM [3, 16]: 126% | viability at 0.04677 µM [3, 17]: 143% | viability at 0.02188 µM [3, 18]: 121% | viability at 0.01 µM [3, 19]: 109% | viability at 4.68 µM [3, 20]: 113% | viability at 2.19 µM [3, 21]: 99.8% | viability at 1 µM ([3]; IMR-90, Control, log (dose) [M] -6, read-out: % Cell Survival): 101% | viability at 0.219 µM [3, 20]: 94.1% | viability at 0.1 µM [3, 22]: 94.9% | viability at 0.04677 µM [3, 23]: 101% | viability at 0.01 µM [3, 24]: 104%

O=c1c(O)c(-c2ccc(O)cc2)oc2c(O)c(O)cc(O)c12 [Herbacetin, herbacetin]
viability at 10 µM [1]: 95.4% | viability at 4.68 µM [1]: 61.9% | viability at 2.19 µM [1]: 89.3% | viability at 1 µM [1]: 98.7% | viability at 0.468 µM [1]: 110% | viability at 0.219 µM [1]: 94.4% | viability at 0.1 µM [1]: 93.1% | viability at 0.0468 µM [1]: 91.6% | viability at 0.0219 µM ([1]; log (dose) [M] -7.66): 96.1% | viability at 0.01 µM [1]: 96.9% | viability at 10 µM [2, 4]: 103% | viability at 4.677 µM [2, 4]: 98.4% | viability at 2.188 µM [2, 4]: 76.1% | viability at 1 µM [2, 4]: 71.6% | viability at 0.4677 µM [2, 5]: 91.9% | viability at 0.2188 µM [2, 6]: 84.1% | viability at 0.1 µM [2, 4]: 95.7% | viability at 0.04677 µM [2, 7]: 90.5% | viability at 0.02188 µM [2, 8]: 97.8% | viability at 0.01 µM [2, 9]: 97.5% | viability at 0.4677 µM ([2]; IMR-90, Senescent cells, log (dose) [M] -6.33, individual replicates, SUP FIG 4C, read-out: % Cell Survival): 94.7% | viability at 0.04677 µM [2, 10]: 85.5% | viability at 0.02188 µM ([2]; IMR-90, Senescent cells, log (dose) [M] -7.66, individual replicates, SUP FIG 4C, read-out: % Cell Survival): 100% | viability at 0.01 µM ([2]; IMR-90, Senescent cells, log (dose) [M] -8, individual replicates, SUP FIG 4C, read-out: % Cell Survival): 91.5% | viability at 0.02188 µM ([2]; IMR-90, Senescent, log (dose) [M] -7.66, read-out: % Cell Survival): 104% | senolytic activity (in words) ([2]; experimental screen, OIS IMR90 ER:RAS): inactive | viability at 10 µM [3, 11]: 100% | viability at 4.677 µM [3, 12]: 108% | viability at 2.188 µM [3, 13]: 97.9% | viability at 1 µM [3, 14]: 74.4% | viability at 0.4677 µM [3, 15]: 94.9% | viability at 0.2188 µM [3, 12]: 93.5% | viability at 0.1 µM [3, 16]: 94.6% | viability at 0.04677 µM [3, 17]: 102% | viability at 0.02188 µM [3, 18]: 109% | viability at 0.01 µM [3, 19]: 107% | viability at 2.188 µM ([3]; IMR-90, Control cells, log (dose) [M] -5.66, individual replicates, SUP FIG 4C, read-out: % Cell Survival): 94.1% | viability at 0.4677 µM ([3]; IMR-90, Control cells, log (dose) [M] -6.33, individual replicates, SUP FIG 4C, read-out: % Cell Survival): 105% | viability at 0.04677 µM ([3]; IMR-90, Control cells, log (dose) [M] -7.33, individual replicates, SUP FIG 4C, read-out: % Cell Survival): 100% | viability at 0.02188 µM ([3]; IMR-90, Control cells, log (dose) [M] -7.66, individual replicates, SUP FIG 4C, read-out: % Cell Survival): 120% | viability at 0.01 µM ([3]; IMR-90, Control cells, log (dose) [M] -8, individual replicates, SUP FIG 4C, read-out: % Cell Survival): 113% | viability at 10 µM ([3]; IMR-90, Control, log (dose) [M] -5, read-out: % Cell Survival): 97.9% | viability at 4.68 µM [3, 20]: 96.8% | viability at 2.19 µM [3, 21]: 91.6% | viability at 0.219 µM [3, 20]: 93.8% | viability at 0.1 µM [3, 22]: 91.7% | viability at 0.04677 µM [3, 23]: 92.8% | viability at 0.0219 µM ([3]; IMR-90, Control, log (dose) [M] -7.66, read-out: % Cell Survival): 98.3% | viability at 0.01 µM [3, 24]: 100%
